The NIST ThermoML archive (doi:10.1016/j.jct.2014.12.023)
Numbers after ± are expanded uncertainties.

Assay: activity coefficient (dimensionless); of the first substance listed, at infinite dilution; xn = mol fraction of the nth substance listed
Conditions: 87.4 kPa, Liquid, Chromatography, x1 = 0

SMILES	activity coefficient (313 K)	activity coefficient (323 K)	activity coefficient (333 K)	activity coefficient (343 K)
CCCCCCC [heptane] + O=S(=O)([N-]S(=O)(=O)C(F)(F)F)C(F)(F)F.O=S(=O)([N-]S(=O)(=O)C(F)(F)F)C(F)(F)F.c1ccc2cc(C[N+]3(CCCCCCCCC[N+]4(Cc5ccc6ccccc6c5)CCCC4)CCCC3)ccc2c1	6.72 ± 0.38	5.97 ± 0.33	5.44 ± 0.31	4.65 ± 0.29
CC(C)O [propan-2-ol] + O=S(=O)([N-]S(=O)(=O)C(F)(F)F)C(F)(F)F.O=S(=O)([N-]S(=O)(=O)C(F)(F)F)C(F)(F)F.c1ccc2cc(C[N+]3(CCCCCCCCC[N+]4(Cc5ccc6ccccc6c5)CCCC4)CCCC3)ccc2c1	1.21 ± 0.061	1.09 ± 0.051	1.05 ± 0.048	0.992 ± 0.045
Cc1ccccc1C [1,2-dimethylbenzene] + O=S(=O)([N-]S(=O)(=O)C(F)(F)F)C(F)(F)F.O=S(=O)([N-]S(=O)(=O)C(F)(F)F)C(F)(F)F.c1ccc2cc(C[N+]3(CCCCCCCCC[N+]4(Cc5ccc6ccccc6c5)CCCC4)CCCC3)ccc2c1	0.84 ± 0.039	0.852 ± 0.039	0.864 ± 0.04	0.894 ± 0.041
ClCCCl [1,2-dichloroethane] + O=S(=O)([N-]S(=O)(=O)C(F)(F)F)C(F)(F)F.O=S(=O)([N-]S(=O)(=O)C(F)(F)F)C(F)(F)F.c1ccc2cc(C[N+]3(CCCCCCCCC[N+]4(Cc5ccc6ccccc6c5)CCCC4)CCCC3)ccc2c1	0.568 ± 0.032	0.569 ± 0.032	0.596 ± 0.033	0.613 ± 0.033
CCCC=O [butanal] + O=S(=O)([N-]S(=O)(=O)C(F)(F)F)C(F)(F)F.O=S(=O)([N-]S(=O)(=O)C(F)(F)F)C(F)(F)F.c1ccc2cc(C[N+]3(CCCCCCCCC[N+]4(Cc5ccc6ccccc6c5)CCCC4)CCCC3)ccc2c1	0.448 ± 0.03	0.464 ± 0.03	0.487 ± 0.03	0.491 ± 0.03
O=Cc1ccccc1 [benzaldehyde] + O=S(=O)([N-]S(=O)(=O)C(F)(F)F)C(F)(F)F.O=S(=O)([N-]S(=O)(=O)C(F)(F)F)C(F)(F)F.c1ccc2cc(C[N+]3(CCCCCCCCC[N+]4(Cc5ccc6ccccc6c5)CCCC4)CCCC3)ccc2c1	0.997 ± 0.044	0.997 ± 0.044	0.998 ± 0.044	0.999 ± 0.044
CCCC(C)=O [pentan-2-one] + O=S(=O)([N-]S(=O)(=O)C(F)(F)F)C(F)(F)F.O=S(=O)([N-]S(=O)(=O)C(F)(F)F)C(F)(F)F.c1ccc2cc(C[N+]3(CCCCCCCCC[N+]4(Cc5ccc6ccccc6c5)CCCC4)CCCC3)ccc2c1	0.432 ± 0.029	0.437 ± 0.029	0.444 ± 0.03	0.448 ± 0.03
CCCCCCCC [octane] + O=S(=O)([N-]S(=O)(=O)C(F)(F)F)C(F)(F)F.O=S(=O)([N-]S(=O)(=O)C(F)(F)F)C(F)(F)F.c1ccc2cc(C[N+]3(CCCCCCCCC[N+]4(Cc5ccc6ccccc6c5)CCCC4)CCCC3)ccc2c1	8.51 ± 0.48	7.57 ± 0.41	7.4 ± 0.39	6.71 ± 0.37
C1COCCO1 [1,4-dioxane] + O=S(=O)([N-]S(=O)(=O)C(F)(F)F)C(F)(F)F.O=S(=O)([N-]S(=O)(=O)C(F)(F)F)C(F)(F)F.c1ccc2cc(C[N+]3(CCCCCCCCC[N+]4(Cc5ccc6ccccc6c5)CCCC4)CCCC3)ccc2c1	0.382 ± 0.029	0.397 ± 0.029	0.413 ± 0.03	0.451 ± 0.031
CC#N [acetonitrile] + O=S(=O)([N-]S(=O)(=O)C(F)(F)F)C(F)(F)F.O=S(=O)([N-]S(=O)(=O)C(F)(F)F)C(F)(F)F.c1ccc2cc(C[N+]3(CCCCCCCCC[N+]4(Cc5ccc6ccccc6c5)CCCC4)CCCC3)ccc2c1	0.339 ± 0.028	0.341 ± 0.028	0.349 ± 0.028	0.372 ± 0.029
O=C1CCCC1 [cyclopentanone] + O=S(=O)([N-]S(=O)(=O)C(F)(F)F)C(F)(F)F.O=S(=O)([N-]S(=O)(=O)C(F)(F)F)C(F)(F)F.c1ccc2cc(C[N+]3(CCCCCCCCC[N+]4(Cc5ccc6ccccc6c5)CCCC4)CCCC3)ccc2c1	0.318 ± 0.028	0.324 ± 0.028	0.33 ± 0.028	0.347 ± 0.028
CCO [ethanol] + O=S(=O)([N-]S(=O)(=O)C(F)(F)F)C(F)(F)F.O=S(=O)([N-]S(=O)(=O)C(F)(F)F)C(F)(F)F.c1ccc2cc(C[N+]3(CCCCCCCCC[N+]4(Cc5ccc6ccccc6c5)CCCC4)CCCC3)ccc2c1	1 ± 0.044	1.01 ± 0.045	0.937 ± 0.043	0.891 ± 0.041
CCCO [propan-1-ol] + O=S(=O)([N-]S(=O)(=O)C(F)(F)F)C(F)(F)F.O=S(=O)([N-]S(=O)(=O)C(F)(F)F)C(F)(F)F.c1ccc2cc(C[N+]3(CCCCCCCCC[N+]4(Cc5ccc6ccccc6c5)CCCC4)CCCC3)ccc2c1	1.33 ± 0.083	1.07 ± 0.057	1.02 ± 0.045	1.01 ± 0.044
C1CCCCC1 [cyclohexane] + O=S(=O)([N-]S(=O)(=O)C(F)(F)F)C(F)(F)F.O=S(=O)([N-]S(=O)(=O)C(F)(F)F)C(F)(F)F.c1ccc2cc(C[N+]3(CCCCCCCCC[N+]4(Cc5ccc6ccccc6c5)CCCC4)CCCC3)ccc2c1	3.83 ± 0.22	3.35 ± 0.19	2.98 ± 0.17	2.49 ± 0.16
O=C1CCCCC1 [cyclohexanone] + O=S(=O)([N-]S(=O)(=O)C(F)(F)F)C(F)(F)F.O=S(=O)([N-]S(=O)(=O)C(F)(F)F)C(F)(F)F.c1ccc2cc(C[N+]3(CCCCCCCCC[N+]4(Cc5ccc6ccccc6c5)CCCC4)CCCC3)ccc2c1	0.998 ± 0.044	0.998 ± 0.044	0.999 ± 0.044	1 ± 0.044
ClC(Cl)(Cl)Cl [tetrachloromethane] + O=S(=O)([N-]S(=O)(=O)C(F)(F)F)C(F)(F)F.O=S(=O)([N-]S(=O)(=O)C(F)(F)F)C(F)(F)F.c1ccc2cc(C[N+]3(CCCCCCCCC[N+]4(Cc5ccc6ccccc6c5)CCCC4)CCCC3)ccc2c1	1.45 ± 0.07	1.47 ± 0.071	1.51 ± 0.073	1.52 ± 0.074
Cc1ccccc1 [toluene] + O=S(=O)([N-]S(=O)(=O)C(F)(F)F)C(F)(F)F.O=S(=O)([N-]S(=O)(=O)C(F)(F)F)C(F)(F)F.c1ccc2cc(C[N+]3(CCCCCCCCC[N+]4(Cc5ccc6ccccc6c5)CCCC4)CCCC3)ccc2c1	0.714 ± 0.035	0.721 ± 0.035	0.723 ± 0.036	0.727 ± 0.036
c1ccccc1 [benzene] + O=S(=O)([N-]S(=O)(=O)C(F)(F)F)C(F)(F)F.O=S(=O)([N-]S(=O)(=O)C(F)(F)F)C(F)(F)F.c1ccc2cc(C[N+]3(CCCCCCCCC[N+]4(Cc5ccc6ccccc6c5)CCCC4)CCCC3)ccc2c1	0.515 ± 0.031	0.517 ± 0.031	0.52 ± 0.031	0.574 ± 0.034
CCCCCC [hexane] + O=S(=O)([N-]S(=O)(=O)C(F)(F)F)C(F)(F)F.O=S(=O)([N-]S(=O)(=O)C(F)(F)F)C(F)(F)F.c1ccc2cc(C[N+]3(CCCCCCCCC[N+]4(Cc5ccc6ccccc6c5)CCCC4)CCCC3)ccc2c1	4.73 ± 0.24	3.9 ± 0.2		
c1ccncc1 [pyridine] + O=S(=O)([N-]S(=O)(=O)C(F)(F)F)C(F)(F)F.O=S(=O)([N-]S(=O)(=O)C(F)(F)F)C(F)(F)F.c1ccc2cc(C[N+]3(CCCCCCCCC[N+]4(Cc5ccc6ccccc6c5)CCCC4)CCCC3)ccc2c1	0.263 ± 0.028	0.266 ± 0.028	0.27 ± 0.028	0.287 ± 0.028
CCOC(C)=O [ethyl acetate] + O=S(=O)([N-]S(=O)(=O)C(F)(F)F)C(F)(F)F.O=S(=O)([N-]S(=O)(=O)C(F)(F)F)C(F)(F)F.c1ccc2cc(C[N+]3(CCCCCCCCC[N+]4(Cc5ccc6ccccc6c5)CCCC4)CCCC3)ccc2c1	0.541 ± 0.032	0.565 ± 0.032	0.601 ± 0.033	0.628 ± 0.034
CO [methanol] + O=S(=O)([N-]S(=O)(=O)C(F)(F)F)C(F)(F)F.O=S(=O)([N-]S(=O)(=O)C(F)(F)F)C(F)(F)F.c1ccc2cc(C[N+]3(CCCCCCCCC[N+]4(Cc5ccc6ccccc6c5)CCCC4)CCCC3)ccc2c1	0.821 ± 0.038			
Cc1cccc(C)c1 [1,3-dimethylbenzene] + O=S(=O)([N-]S(=O)(=O)C(F)(F)F)C(F)(F)F.O=S(=O)([N-]S(=O)(=O)C(F)(F)F)C(F)(F)F.c1ccc2cc(C[N+]3(CCCCCCCCC[N+]4(Cc5ccc6ccccc6c5)CCCC4)CCCC3)ccc2c1	0.857 ± 0.042	0.924 ± 0.042	0.941 ± 0.042	0.996 ± 0.045
Cc1ccc(C)cc1 [1,4-dimethylbenzene] + O=S(=O)([N-]S(=O)(=O)C(F)(F)F)C(F)(F)F.O=S(=O)([N-]S(=O)(=O)C(F)(F)F)C(F)(F)F.c1ccc2cc(C[N+]3(CCCCCCCCC[N+]4(Cc5ccc6ccccc6c5)CCCC4)CCCC3)ccc2c1	0.881 ± 0.04	0.9 ± 0.041	0.929 ± 0.042	0.992 ± 0.045
CCN(CC)CC [triethylamine] + O=S(=O)([N-]S(=O)(=O)C(F)(F)F)C(F)(F)F.O=S(=O)([N-]S(=O)(=O)C(F)(F)F)C(F)(F)F.c1ccc2cc(C[N+]3(CCCCCCCCC[N+]4(Cc5ccc6ccccc6c5)CCCC4)CCCC3)ccc2c1	0.762 ± 0.098	1.22 ± 0.081	1.35 ± 0.068	1.45 ± 0.072
CC(=O)O [acetic acid] + O=S(=O)([N-]S(=O)(=O)C(F)(F)F)C(F)(F)F.O=S(=O)([N-]S(=O)(=O)C(F)(F)F)C(F)(F)F.c1ccc2cc(C[N+]3(CCCCCCCCC[N+]4(Cc5ccc6ccccc6c5)CCCC4)CCCC3)ccc2c1	0.824 ± 0.04	0.767 ± 0.038	0.746 ± 0.036	0.74 ± 0.036
